Test results taken from EP4703354A1, “COMPOUND AS CCR6 ANTAGONIST, AND PHARMACEUTICAL COMPOSITION AND USE THEREOF” (Wuhan Createrna Science and Technology Co.,Ltd., priority 2023, dated 2024).

Tests used:
[1] = in vitro liver microsome metabolic stability, beagle dog; assay type: in vitro ADME; conditions: Beagle dog liver microsomes, 37°C
Summary of the method: (§1)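 Test compound at 1 µM final (100 µM working solution diluted 1:100) incubated at 37°C with liver microsomes in pH 7.4 phosphate buffer with NADP/G6P/G6PDH/MgCl2 regenerating system; sampled 0–30 min, LC-MS/MS vs internal standard. T1/2 = 0.693/k from remaining-fraction decay.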

[2] = in vitro liver microsome metabolic stability, rat; assay type: in vitro ADME; conditions: Rat liver microsomes, 37°C
Summary of the method: as §1

human CXCR2 = molecular target: T1, human CXCR2 (Homo sapiens, UniProt P25025); assay: human CXCR2 calcium flux activity (FLIPR, HEK293 cells stably expressing human CXCR2, IL-8 stimulation); assay type: cell-based; conditions: HEK293 cells stably expressing human CXCR2, EC80 human IL-8; read-out: CXCR2 inhibitory activity, IC50
T1 construct: expressed in transfected cells; host or cells: HEK293
T1 sequence (P25025 1-360): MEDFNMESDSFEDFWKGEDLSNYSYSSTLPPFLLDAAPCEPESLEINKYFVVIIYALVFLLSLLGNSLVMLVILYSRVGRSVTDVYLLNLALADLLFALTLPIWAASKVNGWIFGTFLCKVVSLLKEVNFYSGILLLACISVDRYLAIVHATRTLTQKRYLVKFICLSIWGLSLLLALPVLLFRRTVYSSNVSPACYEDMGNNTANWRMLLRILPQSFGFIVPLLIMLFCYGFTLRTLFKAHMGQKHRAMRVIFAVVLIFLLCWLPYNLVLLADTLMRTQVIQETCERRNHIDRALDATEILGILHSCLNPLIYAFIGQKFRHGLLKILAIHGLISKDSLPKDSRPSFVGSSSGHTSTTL
Method: The activity of the compounds was evaluated using HEK293 cells stably expressing human CXCR2 via the FLIPR platform. A 384-well black cell culture plate (Greiner, 781946) was used, with a seeding density of 20,000 cells/well, and incubated overnight at 37°C in a 5% CO2 incubator. The culture medium in the cell plate wells was removed, and 20 µL of Fluo-4 Direct™ Calcium Assay Buffer (Invitrogen, F10471, Component C), 20 µL of 2× Fluo-4 Direct™ Calcium Assay Reagent (Invitrogen, F10471, Component A) working solution, and 10 µL of 6× test compound working solution were sequentially added to each well. The cell plate was incubated in a 37 °C, 5% CO2 incubator for 50 min, followed by a 10 min incubation at room temperature. Additionally, a 6×EC80 human IL-8 (Sigma, SRP3311) working solution was prepared. After the incubation was completed, 10 µL/well of the 6×EC80 human IL-8 working solution was transferred to the corresponding cell wells using a FLIPR instrument, and the fluorescence signal changes at an excitation wavelength of 494 nm and an emission wavelength of 516 nm were recorded over 130 s. The difference between the maximum fluorescence signal (RFUMax) and the minimum fluorescence signal (RFUMin) was used as the output signal. The compound inhibition rate and the log value of the compound concentration were calculated, and a four-parameter fitting analysis was performed using GraphPad Prism 8 software to obtain the IC50 value of the test compound. Table 1. Inhibitory activity data of compounds against CCR6 and CXCR2

Compound | Liver microsome T1-2 (min) Beagle dog [1] [min] | Liver microsome T1-2 (min) Rat [2] [min] | IC50 (human CXCR2) [nM]
CC#C[C@H](Nc1c(Nc2ccnc(C(=O)N(C)C)c2O)c(=O)c1=O)C1(C)CCCC1 [compound 113, (R)-3-hydroxy-N, N-dimethyl-4-((2-((1-(1-methylcyclopentyl)but-2-yn-1-yl)amino)-3,4-dioxocyclobut-1-en-1-yl)amino)picolinamide] | 520.59 | 124.51 | 1480
CN(C)C(=O)c1nccc(Nc2c(N[C@@H](C#CC3CC3)C3(C)CCCC3)c(=O)c2=O)c1O [compound 115, (R)-4-((2-((3-cyclopropyl-1-(1-methylcyclopentyl)prop-2-yn-1-yl)amino)-3,4-dioxocyclobut-1-en-1-yl)amino)-3-hydroxy-N,N-dimethylpicolinamide] | 1110.44 | 114.18 | 527
CN(C)C(=O)c1nccc(Nc2c(N[C@@H](C#CC3CCC3)[C@]3(C)CC(F)(F)CO3)c(=O)c2=O)c1O (single isomer, unassigned) [110A] | 358.15 | 292.82 | 297
CN(C)C(=O)c1nccc(Nc2c(N[C@@H](c3cccc(CF)n3)C3(C)CCCC3)c(=O)c2=O)c1O [compound 108, (R)-4-((2-(((6-(fluoromethyl)pyridin-2-yl)(1-methylcyclopentyl)methyl)amino)-3,4-dioxocyclobut-1-en-1-yl)amino)-3-hydroxy-N,N-dimethylpicolinamide] | 63.57 | 124.28 | 740
CC#C[C@H](Nc1c(Nc2ccc(Cl)c(C(=O)N(C)C)c2O)c(=O)c1=O)C1(C)CCCC1 [compound 114, (R)-6-chloro-2-hydroxy-N, N-dimethyl-3-((2-((1-(1-methylcyclopentyl)but-2-yn-1-yl)amino)-3,4-dioxocyclobut-1-en-1-yl)amino)benzamide] | 489.6 | 120.25 | 1450
Cc1cc(F)cnc1[C@H](Nc1c(Nc2ccnc(C(=O)N(C)C)c2O)c(=O)c1=O)[C@]1(C)CC(F)(F)CO1 [093A, 4-((2-(((S)-((S)-4,4-difluoro-2-methyltetrahydrofuran-2-yl)(5-fluoro-3-methylpyridin-2-yl)methyl)amino)-3,4-dioxocyclobut-1-en-1-yl)amino)-3-hydroxy-N,N-dimethylpicolinamide] | 104.27 | 110.15 | > 100000
CN(C)C(=O)c1nccc(Nc2c(N[C@@H](c3ccc(F)cn3)C3(C)CCCC3)c(=O)c2=O)c1O [compound 005, (R)-4-((2-(((5-fluoropyridin-2-yl)(1-methylcyclopentyl)methyl)amino)-3,4-dioxocyclobut-1-en-1-yl)amino)-3-hydroxy-N,N-dimethylpicolinamide] | 254.48 | 101.29 | 1250
CN(C)C(=O)c1nccc(Nc2c(N[C@@H](c3nc(Cl)ccc3F)[C@@]3(C)CC(F)(F)CO3)c(=O)c2=O)c1O [068B, 4-((2-(((S)-(6-chloro-3-fluoropyridin-2-yl)((R)-4,4-difluoro-2-methyltetrahydrofuran-2-yl)methyl)amino)-3,4-dioxocyclobut-1-en-1-yl)amino)-3-hydroxy-N,N-dimethylpicolinamide] | 199.34 | 570.62 | 7630
CN(C)C(=O)c1nccc(Nc2c(N[C@@H](c3cccc(Cl)n3)C3(C)CCCC3)c(=O)c2=O)c1O [compound 003, (R)-4-((2-(((6-chloropyridin-2-yl)(1-methylcyclopentyl)methyl)amino)-3,4-dioxocyclobut-1-en-1-yl)amino)-3-hydroxy-N,N-dimethylpicolinamide] | – | 93.67 | 2210
Cc1cccnc1[C@H](Nc1c(Nc2ccc(Cl)c(C(=O)N(C)C)c2O)c(=O)c1=O)C1(C)CCCC1 [compound 063, (R)-6-chloro-2-hydroxy-N,N-dimethyl-3-((2-(((1-methylcyclopentyl)(3-methylpyridin-2-yl)methyl)amino)-3,4-dioxocyclobut-1-en-1-yl)amino)benzamide] | 202.25 | 20.71 | 15300
CN(C)C(=O)c1nccc(Nc2c(N[C@@H](c3ncc(F)cc3F)C3(C)CCCC3)c(=O)c2=O)c1O [compound 009, (R)-4-((2-(((3,5-difluoropyridin-2-yl)(1-methylcyclopentyl)methyl)amino)-3,4-dioxocyclobut-1-en-1-yl)amino)-3-hydroxy-N,N-dimethylpicolinamide] | 89.42 | 62.30 | 2430
